Test results from US7612077B2, “Crystalline forms of the anti-cancer compound ZD1839” (Astrazeneca AB, priority 2002, dated 2009).

What was measured:
[1] = stability of the crystalline physical form; format: physicochemical; details: solid crystalline form
[2] = stability in the presence of water / as aqueous suspension; format: physicochemical
Protocol: Form 5 ZD1839 trihydrate is a stable form of the compound of Formula I In particular, Form 5 ZD1839 trihydrate is very stable in the presence of water. For example, when Form 5 ZD1839 trihydrate is prepared as an aqueous suspension the resulting suspension is stable, whereas aqueous suspensions prepared using other forms of the compound of Formula I are prone to convert to Form 5 ZD1839 trihydrate during storage. In the case of aqueous suspensions of the compound of Formula I this can be problematic because the conversion of a less thermodynamically stable form to the Form 5 ZD1839 trihydrate can result in the growth of large crystals of the Form 5 ZD1839 trihydrate, thereby altering the particle size distribution in the suspension. […] Furthermore, if a variable mixture of two such forms of the compound of Formula I were to be present, the dissolution rate and bioavailability of the active compound(s) could be variable as a result of the different characteristics of the two forms.

Compound	stability of crystalline physical form [1]	stability in the presence of water ([2]; in the presence of water)	stability of aqueous suspension ([2]; prepared as an aqueous suspension, during storage)
COc1cc2ncnc(Nc3ccc(F)c(Cl)c3)c2cc1OCCCN1CCOCC1 [Form 1 ZD1839 polymorph, 4-(3′-chloro-4′-fluoroanilino)-7-methoxy-6-(3-morpholinopropoxy)quinazoline]	highly stable	–	–
COc1cc2ncnc(Nc3ccc(F)c(Cl)c3)c2cc1OCCCN1CCOCC1 [Form 3 ZD1839 DMSO solvate, 4-(3′-chloro-4′-fluoroanilino)-7-methoxy-6-(3-morpholinopropoxy)quinazoline mono-solvate with dimethyl sulphoxide]	very stable	–	–
COc1cc2ncnc(Nc3ccc(F)c(Cl)c3)c2cc1OCCCN1CCOCC1 [Form 2 ZD1839 MeOH solvate, 4-(3′-chloro-4′-fluoroanilino)-7-methoxy-6-(3-morpholinopropoxy)quinazoline hemi-methanolate]	of sufficient stability	–	–
COc1cc2ncnc(Nc3ccc(F)c(Cl)c3)c2cc1OCCCN1CCOCC1 [Form 5 ZD1839 trihydrate, 4-(3′-chloro-4′-fluoroanilino)-7-methoxy-6-(3-morpholinopropoxy)quinazoline trihydrate]	–	very stable	stable
